Data set [1] is described as follows: Gelation and stability of Abz-derived amphiphiles. The format is physicochemical. How it is done: A variety of Abz-derived amphiphiles were synthesized (Scheme 3-1). […] In general, mixtures of polar organic solvents with water gave the best gelation results, with only two pure organogels forming (Abz-Alloc in glycerol, and Abz-Chol in 1,4-dioxane). […] The four amphiphiles had widely different solubility and gelation properties, with each amphiphile forming at least two gels.
Gelation. To a vial containing solid amphiphile was added the appropriate solvent. The vial was sealed and heated over a heat gun (˜110° C. max) until amphiphile fully dissolved. The vial was allowed to cool undisturbed at room temperature, during which time gel formed. For all characterization gels were allowed to form for at least 45 minutes.

Data set [2] is described as follows: Gelation of Asc-Pal without and with dexamethasone. It counts as physicochemical. The following applies: 20% ethanol in water. The procedure: Self-assembly of the amphiphiles is a delicate process that could be affected by additional agents. To understand the affect of dexamethasone, gelation of Asc-Pal has been explored in 20% ethanol in water by varying concentration of Asc-Pal (1-5% wt/v) while keeping concentration of dexamethasone (2 mg) constant. Results in Table 6-2 reveal that presence of dexamethasone facilitates the self-assembly of Asc-Pal and strengthen the gelation.

Data set [3] is described as follows: Gelation of Asc-Pal in solvents. The format is physicochemical. The procedure: Typically, solvents (0.2 mL) were added to a glass scintillation vial with the gelator (0.5-5 wt/vol %) and sealed with a screw cap. The vial was heated to about 60-80° C. until the gelator was completely dissolved. The vial was placed on a stable surface and allowed to cool to room temperature. Typically after 15-45 min, the solution was transitioned into a viscous gel. Gelation was considered to have occurred when no gravitational flow was observed upon inversion of the glass vial, and resulted hydrogels are injectable. Asc-Pal formed gels in water, benzene, toluene, carbon tetrachloride, and acetonitrile; while a precipitate formed in dimethylformamide and dimethylsulfoxide. Asc-Pal was soluble in chloroform and methanol.

The test system of data set [4] is glioma cell line, G55. Nature of the data set: Cytotoxicity of CPT encapsulated SMS self-assembled fibers, G55. It counts as cell-based. The following applies: G55 cells in culture. The source says:
(§1) Cytotoxicity Studies of CPT Encapsulated SMS Self-Assembled Fibers. Prior to in vivo studies, evaluation of efficacy of drug delivery systems using appropriate cell lines is an essential step. Efficacy of CPT loaded SMS self-assembled fibers were investigated using glioma cell line, G55 and control cell line fibroblast, NIH3T3. […] We hypothesize that highly proliferative glioma G55 cells secretes high concentrations of enzymes that degrade the self-assembled fibers to release CPT efficiently, whereas free form of CPT degrades in the media due to its low half-life at physiological conditions. […] Encapsulation of Camptothecin and PARP-Inhibitor (AGO14699).

Data set [5] deals with fibroblasts (NIH3T3). Nature of the data set: Cytotoxicity of CPT encapsulated SMS self-assembled fibers, NIH3T3. The format is cell-based. The following applies: Mus musculus; NIH3T3 fibroblasts in culture; unit inferred.
From the text: as §1

Data set [6] in a line: Gelation ability and minimum gelation concentration of SMS. The format is physicochemical. The following applies: for Gelation ability: concentration around 5-9%. An excerpt:
MGC values of SMS have varied from 3 to 8 wt/v %.

Consider six compounds from patent US11672864B2, “Nanostructured gels capable of controlled release of encapsulated agents” (The Brigham and Women's Hospital, Inc., priority 2010, dated 2023).

Usually IC50 stands for the concentration that inhibits the measured activity by half.

As for `C=CCOC(=O)Nc1cccc(C(N)=O)c1` [Abz-Alloc], the “Gelation in pure organic solvent” value in data set [1] (glycerol) is given as “organogels”.

For `CC(C)CCC[C@@H](C)[C@H]1CC[C@H]2[C@@H]3CC=C4CC(OC(=O)Nc5cccc(C(N)=O)c5)CC[C@]4(C)[C@H]3CC[C@]12C` (stereo partly shown) [Abz-Chol], in data set [1] (1,4-dioxane), the “Gelation in pure organic solvent” value is “organogels”.

As to `NC(=O)c1cccc(NC(=O)Oc2ccc([N+](=O)[O-])cc2)c1` [Abz-PNP], in data set [1], the Stability of amphiphile result is “decompose spontaneously”.

For `CCCCCCCCCCCCCCCC(=O)OC[C@H](O)[C@H]1OC(=O)C(O)=C1O` [Asc-Pal, Ascorbyl palmitate], the Gelation result in data set [2] (1% Asc-Pal, with dex (2 mg)) is “Weak”; in data set [2] (1% Asc-Pal, without drug) it was “Not gel”; in data set [2] (2% Asc-Pal, with dex (2 mg)), “Gel”; in data set [2] (2% Asc-Pal, without drug) it was “weak”; in data set [2] (3% Asc-Pal, with dex (2 mg)), “Gel”; in data set [2] (3% Asc-Pal, without drug), “Gel”. Besides, the Gelation result is listed as “Gel” in data set [2] (4% Asc-Pal, with dex (2 mg)); “Gel” in data set [2] (4% Asc-Pal, without drug); “Gel” in data set [2] (5% Asc-Pal, with dex (2 mg)); “Gel” in data set [2] (5% Asc-Pal, without drug). Moreover, the Gelation behaviour result was “gels” in data set [3] (acetonitrile); “gels” in data set [3] (benzene); “gels” in data set [3] (carbon tetrachloride); “soluble” in data set [3] (chloroform); “precipitate” in data set [3] (dimethylformamide); “precipitate” in data set [3] (dimethylsulfoxide). In addition, the Gelation behaviour result in data set [3] (methanol) was “soluble”; in data set [3] (toluene), “gels”; in data set [3] (water, gelator 0.5-5 wt/vol %), “gels”.

`CC[C@@]1(O)C(=O)OCc2c1cc1n(c2=O)Cc2cc3ccccc3nc2-1` [Camptothecin]: the IC50 in data set [4] was found to be 0.03 µM; in data set [5], 0.0039 µM.

For `CCCCCCCCCCCCCCCCCC(=O)OC[C@@H](O)[C@H]1OC[C@H](O)[C@H]1O` [Sorbitane Monostearate, sorbitan monostearate], the Gelation ability entry is “Precipitate” in data set [6] (Acetone); “Precipitate” in data set [6] (Acetonitrile (CH3CN)); “Soluble” in data set [6] (Chloroform); “Soluble” in data set [6] (Dimethyl formamide (DMF)); “Gel” in data set [6] (Dimethyl sulfoxide (DMSO)); “Soluble” in data set [6] (Dioxane). Besides, the Gelation ability entry in data set [6] (Ethanol) was “Soluble”; in data set [6] (Ethyl acetate), “Emulsion”; in data set [6] (Glycerol), “Gel”; in data set [6] (Isobutanol), “Soluble”; in data set [6] (Isopropanol), “Soluble”; in data set [6] (Isopropyl palmitate) it was “Clear Gel”. For the same compound, the Gelation ability entry is “Precipitate” in data set [6] (Methanol); “Weak Gel” in data set [6] (Mono-ethylene glycol); “Increased” in data set [6] (Polyethylene glycol dimethyl acrylate); “Soluble” in data set [6] (Tetrachloro methane); “Soluble” in data set [6] (Tetrahydrofuran (THF)); “Soluble” in data set [6] (Toluene). The Gelation ability result in data set [6] (Water) is listed as “Gel”; in data set [6] (Xylene), “Soluble”; in data set [6] (n-hexadecane), “Gel”; in data set [6] (n-hexane) it was “Gel”. The “Minimum Gelation Concentration” value in data set [6] (Dimethyl sulfoxide (DMSO)) came to 3% Wt/V %; in data set [6] (Ethylene glycol) it was 5% Wt/V %; in data set [6] (Isopropyl palmitate), 3% Wt/V %; in data set [6] (Water) it was 3% Wt/V %; in data set [6] (glycerol), 8% Wt/V %; in data set [6] (n-hexadecane), 2% Wt/V %. In addition, in data set [6] (n-hexane), the “Minimum Gelation Concentration” value stood at 4% Wt/V %. Moreover, the “Gelation in gelling solvent” value in data set [6] (Dimethyl sulfoxide (DMSO) (Table 4-2)), in data set [6] (Ethylene glycol (Table 4-2)), in data set [6] (Glycerol (Table 4-2)), in data set [6] (Isopropyl palmitate (Table 4-2)), in data set [6] (Water (Table 4-2)) and in data set [6] (n-hexadecane (Table 4-2)) was “Gel” in each case. Further, in data set [6] (n-hexane (Table 4-2)), the “Gelation in gelling solvent” value is given as “Gel”. Further, the “Minimum gelation concentrations (MGC)” value in data set [6] (across different solvents) is recorded as 3 to 8 wt/v %.
